One data set relates to HIV-IIIb. Kind of data set: Test A: Antiviral Assay in MT4 Cells. Type of data set: cell-based, HIV-1. The following applies: for inhibition at 0.2 µM / inhibition at 2 µM: Human immunodeficiency virus 1, IIIB, MT4, 120 h; for inhibition at 0.2 µM: read-out: % inhibition at 0.2 μM; for inhibition at 2 µM: read-out: % inhibition at 2 μM. The method, then: Test A: Antiviral Assay in MT4 Cells
(§1) MT-4 cells were next mixed with HIV-IIIb at an m.o.i of 0.003 for 1 hour, after which time 35 μL of virus/cell mixture (2000 cells) was immediately added to each well containing 40 μL of diluted compound. The plates were then incubated at 37° C. for 5 days. […] Cell lysis was carried out by incubating at room temperature for 10 min and then chemiluminescence was read.

Data set [1] is described as follows: Test B: Cytotoxicity Assay. The following applies: human, uninfected MT-4 cells, same protocol as Test A. Format: cell-based. The method, then:
as §1
Test B: Cytotoxicity Assay
Compound cytotoxicity and the corresponding CC50 values was determined using the same protocol as described in the antiviral assay (Test A) except that uninfected cells were used.

A value given as a limit tells only on which side of the number the result lay.

These results are taken from patent publication US20140303164A1, “THERAPEUTIC COMPOUNDS” (Gilead Sciences, Inc., priority 2013, published 2014).

Take `CC(C)(O)C#Cc1ccc(-c2ccc(Cl)c3c(NS(C)(=O)=O)n[nH]c23)c([C@H](Cc2cc(F)cc(F)c2)NC(=O)Cn2nc(C(F)F)c3c2C(F)(F)[C@@H]2C[C@H]32)n1` [Compound 108C, N—((S)-1-(3-(4-chloro-3-(methylsulfonamido)-1H-indazol-7-yl)-6-(3-hydroxy-3-methylbut-1-yn-1-yl)pyridin-2-yl)-2-(3,5-difluorophenyl)ethyl)-2-((3b-S,4aR)-3-(difluoromethyl)-5,5-difluoro-3b,4,4a,5-tetrahydro-1H-cyclopropa[3,4]cyclopenta[1,2-c]pyrazol-1-yl)acetamide]: in the data set with HIV-IIIb, the inhibition at 0.2 µM was 94% and the inhibition at 2 µM was 94%. In data set [1], the CC50 at 5 days was over 53.1 µM.

Take `Cn1nc(NCC#N)c2c(Cl)ccc(-c3ccc(C#CC(C)(C)O)nc3[C@H](Cc3cc(F)cc(F)c3)NC(=O)Cn3nc(C(F)F)c4c3C(F)(F)[C@@H]3C[C@H]43)c21` [Compound 93, N—((S)-1-(3-(4-chloro-3-((cyanomethyl)amino)-1-methyl-1H-indazol-7-yl)-6-(3-hydroxy-3-methylbut-1-yn-1-yl)pyridin-2-yl)-2-(3,5-difluorophenyl)ethyl)-2-((3b-S,4aR)-3-(difluoromethyl)-5,5-difluoro-3b,4,4a,5-tetrahydro-1H-cyclopropa[3,4]cyclopenta[1,2-c]pyrazol-1-yl)acetamide]: in the data set on HIV-IIIb, the inhibition at 0.2 µM came to 92% and the inhibition at 2 µM amounted to 92%. The molecule also had a CC50 at 5 days in data set [1] of 4.81 µM.

`C#Cc1ccc(-c2ccc(Cl)c3cnn(C)c23)c([C@H](Cc2cc(F)cc(F)c2)NC(=O)Cn2nc(C(F)F)c3c2C(F)(F)[C@@H]2C[C@H]32)n1` [Compound 136D, N—((S)-1-(3-(4-chloro-1-methyl-1H-indazol-7-yl)-6-ethynylpyridin-2-yl)-2-(3,5-difluorophenyl)ethyl)-2-((3b-S,4aR)-3-(difluoromethyl)-5,5-difluoro-3b,4,4a,5-tetrahydro-1H-cyclopropa[3,4]cyclopenta[1,2-c]pyrazol-1-yl)acetamide] displayed a CC50 at 5 days in data set [1] of 7.43 µM.

Turning to `Cn1nc(NS(=O)(=O)C(F)(F)F)c2c(Cl)ccc(-c3ccc(C#CC(C)(C)O)nc3[C@H](Cc3cc(F)cc(F)c3)NC(=O)Cn3nc(C(F)F)c4c3C(F)(F)[C@@H]3C[C@H]43)c21` [Compound 171D, N—((S)-1-(3-(4-chloro-1-methyl-3-(trifluoromethylsulfonamido)-1H-indazol-7-yl)-6-(3-hydroxy-3-methylbut-1-yn-1-yl)pyridin-2-yl)-2-(3,5-difluorophenyl)ethyl)-2-((3b-S,4aR)-3-(difluoromethyl)-5,5-difluoro-3b,4,4a,5-tetrahydro-1H-cyclopropa[3,4]cyclopenta[1,2-c]pyrazol-1-yl)acetamide], the CC50 at 5 days in data set [1] is over 42.5 µM.

In the case of `NC(=O)c1cc(-c2ccc(-c3ccc(F)c(C(N)=O)c3)c([C@H](Cc3cc(F)cc(F)c3)NC(=O)Cn3nc(C(F)F)c4c3C(F)(F)CCC4(F)F)n2)ccc1F` [Compound 5G, (S)-5,5′-(6-(1-(2-(3 (difluoromethyl)-4,4,7,7-tetrafluoro-4,5,6,7-tetrahydro-1H-indazol-1-yl)acetamido)-2-(3,5-difluorophenyl)ethyl)pyridine-2,5-diyl)bis(2-fluorobenz amide)], the “Response at 0.2 μM” value in the data set with HIV-IIIb (percent inhibition of virus-induced cell killing at 0.2 μM, comparison with previously published compounds (WO 2013/006738)) was 3%. Further, in the data set on HIV-IIIb (percent inhibition of virus-induced cell killing at 2 μM, comparison with previously published compounds (WO 2013/006738)), the “Response at 2 μM” value came to 58%.

Turning to `Cn1nc(NS(C)(=O)=O)c2cccc(-c3cnc([C@H](Cc4cc(F)cc(F)c4)NC(=O)Cn4nc(C(F)F)c5c4C(F)(F)[C@@H]4C[C@H]54)c(-c4cccc5c(NS(C)(=O)=O)nn(C)c45)n3)c21` [Compound 146I, N—((S)-1-(3,5-bis(1-methyl-3-(methylsulfonamido)-1H-indazol-7-yl)pyrazin-2-yl)-2-(3,5-difluorophenyl)ethyl)-2-((3b-S,4aR)-3-(difluoromethyl)-5,5-difluoro-3b,4,4a,5-tetrahydro-1H-cyclopropa[3,4]cyclopenta[1,2-c]pyrazol-1-yl)acetamide], the CC50 at 5 days in data set [1] is 33.5 µM.

Regarding `COc1ccc(-c2ccc(C#CC(C)(C)O)nc2[C@H](Cc2cc(F)cc(F)c2)NC(=O)Cn2nc(C(F)F)c3c2C(F)(F)[C@@H]2C[C@H]32)c2c1c(NS(C)(=O)=O)nn2C` [Compound 141D, 2-((3b-S,4aR)-3-(difluoromethyl)-5,5-difluoro-3b,4,4a,5-tetrahydro-1H-cyclopropa[3,4]cyclopenta[1,2-c]pyrazol-1-yl)-N—((S)-2-(3,5-difluorophenyl)-1-(6-(3-hydroxy-3-methylbut-1-yn-1-yl)-3-(4-methoxy-1-methyl-3-(methylsulfonamido)-1H-indazol-7-yl)pyridin-2-yl)ethyl)acetamide], in the data set on HIV-IIIb, the inhibition at 0.2 µM is 100% and the inhibition at 2 µM is 100%.

In the case of `O=C(Cn1nc(C(F)F)c2c1C(F)(F)CCC2(F)F)N[C@@H](Cc1cc(F)cc(F)c1)c1ncc(-c2ccc3c(c2)C(=O)NC3)cc1-c1ccc2c(c1)C(=O)NC2` [Compound 10B, (S)—N-(1-(3,5-bis(3-oxoisoindolin-5-yl)pyridin-2-yl)-2-(3,5-difluorophenyl)ethyl)-2-(3-(difluoromethyl)-4,4,7,7-tetrafluoro-4,5,6,7-tetrahydro-1H-indazol-1-yl)acetamide], the inhibition at 0.2 µM in the data set with HIV-IIIb worked out at 1%.

In the case of `Cn1nc(N[S+](C)[O-])c2c(Cl)ccc(-c3ccc(C#CC(C)(C)O)nc3[C@H](Cc3cc(F)cc(F)c3)NC(=O)Cn3nc(C(F)F)c4c3C(F)(F)[C@@H]3C[C@H]43)c21` (stereo partly drawn) [Compound 180C, N-((1S)-1-(3-(4-chloro-1-methyl-3-(methylsulfinamido)-1H-indazol-7-yl)-6-(3-hydroxy-3-methylbut-1-yn-1-yl)pyridin-2-yl)-2-(3,5-difluorophenyl)ethyl)-2-((3b-S,4aR)-3-(difluoromethyl)-5,5-difluoro-3b,4,4a,5-tetrahydro-1H-cyclopropa[3,4]cyclopenta[1,2-c]pyrazol-1-yl)acetamide], in the data set on HIV-IIIb, the inhibition at 0.2 µM was found to be 100% and the inhibition at 2 µM turned out to be 100%.

`Cn1nc(NS(C)(=O)=O)c2c(Cl)ccc(-c3ccc(C#CC(C)(C)O)nc3[C@H](Cc3cc(F)cc(F)c3)NC(=O)Cn3nc(C(=O)O)c4c3C(F)(F)[C@@H]3C[C@H]43)c21` [Compound 147, (3bS,4aR)-1-(2-(((S)-1-(3-(4-chloro-1-methyl-3-(methylsulfonamido)-1H-indazol-7-yl)-6-(3-hydroxy-3-methylbut-1-yn-1-yl)pyridin-2-yl)-2-(3,5-difluorophenyl)ethyl)amino)-2-oxoethyl)-5,5-difluoro-3b,4,4a,5-tetrahydro-1H-cyclopropa[3,4]cyclopenta[1,2-c]pyrazole-3-carboxylic acid] returned a CC50 at 5 days in data set [1] of over 53.2 µM.

As for `Cc1ccc(-c2ccc(C#CC(C)(C)O)nc2[C@H](Cc2cc(F)cc(F)c2)NC(=O)Cn2nc(C(F)F)c3c2C(F)(F)[C@@H]2C[C@H]32)c2c1c(NS(C)(=O)=O)nn2C` [Compound 112D, 2-((3b-S,4aR)-3-(difluoromethyl)-5,5-difluoro-3b,4,4a,5-tetrahydro-1H-cyclopropa[3,4]cyclopenta[1,2-c]pyrazol-1-yl)-N—((S)-2-(3,5-difluorophenyl)-1-(3-(1,4-dimethyl-3-(methylsulfonamido)-1H-indazol-7-yl)-6-(3-hydroxy-3-methylbut-1-yn-1-yl)pyridin-2-yl)ethyl)acetamide], in the data set with HIV-IIIb, the inhibition at 0.2 µM came out at 97% and the inhibition at 2 µM worked out at 97%.

Consider `O=C(Cn1nc(C(F)F)c2c1C(F)(F)CCC2(F)F)N[C@@H](Cc1cc(F)cc(F)c1)c1ncc(-c2cnc3[nH]ccc3c2)cc1-c1cnc2[nH]ccc2c1` [Compound 11, (S)—N-(1-(3,5-di(1H-pyrrolo[2,3-b]pyridin-5-yl)pyridin-2-yl)-2-(3,5-difluorophenyl)ethyl)-2-(3-(difluoromethyl)-4,4,7,7-tetrafluoro-4,5,6,7-tetrahydro-1H-indazol-1-yl)acetamide], for which, in the data set with HIV-IIIb, the inhibition at 0.2 µM came out at 3%.

As for `O=C(Cn1nc(C(F)F)c2c1C(F)(F)CCC2(F)F)N[C@@H](Cc1cc(F)cc(F)c1)c1nc(-c2cc[nH]c(=O)c2)ccc1-c1ccc2c(c1)C(=O)NC2` [Compound 12, (S)-2-(3-(difluoromethyl)-4,4,7,7-tetrafluoro-4,5,6,7-tetrahydro-1H-indazol-1-yl)-N-(2-(3,5-difluorophenyl)-1-(2′-oxo-5-(3-oxoisoindolin-5-yl)-1′,2′-dihydro-[2,4′-bipyridin]-6-yl)ethyl)acetamide], in the data set on HIV-IIIb, the inhibition at 0.2 µM was 1%.

With `O=C(Cn1nc(C(F)F)c2c1C(F)(F)CCC2(F)F)N[C@@H](Cc1cc(F)cc(F)c1)c1nc(-c2cnc3[nH]ccc3c2)ccc1-c1cnc2[nH]ccc2c1` [Compound 7, (S)—N-(1-(3,6-bis(1H-pyrrolo[2,3-b]pyridin-5-yl)pyridin-2-yl)-2-(3,5-difluorophenyl)ethyl)-2-(3-(difluoromethyl)-4,4,7,7-tetrafluoro-4,5,6,7-tetrahydro-1H-indazol-1-yl)acetamide], in the data set with HIV-IIIb, the inhibition at 0.2 µM was found to be 8%.

`CC(C)(O)C#Cc1ccc(-c2cccc3c2CNC3=O)c([C@H](Cc2cc(F)cc(F)c2)NC(=O)Cn2nc(C(F)(F)F)c3c2C(F)(F)[C@@H]2C[C@H]32)n1` [Compound 14E, 2-((3bS,4aR)-5,5-difluoro-3-(trifluoromethyl)-3b,4,4a,5-tetrahydro-1H-cyclopropa[3,4]cyclopenta[1,2-c]pyrazol-1-yl)-N—((S)-2-(3,5-difluorophenyl)-1-(6-(3-hydroxy-3-methylbut-1-yn-1-yl)-3-(1-oxoisoindolin-4-yl)pyridin-2-yl)ethyl)acetamide]: the inhibition at 0.2 µM with HIV-IIIb was found to be 87%.

One may read the inhibition as the relative decrease from the control value, in per cent. By CC50 is commonly meant the concentration that lowers cell viability or growth by half.
